Test results taken from patent US20140120232A1, “ACID TASTE/ACID SMELL-REDUCING AGENT” (T. HASEGAWA CO., LTD., priority 2011, published 2014).

Tests used:
[1] = Sensory evaluation of dressing containing the agent; conditions: ten panels
Protocol: (§1) Sensory evaluation of each drink was carried out by ten panels. […] The piercing aroma characteristic to aldehydes is a characteristic aroma common to every aldehyde and refers to an irritant off-smell giving an image of deteriorated oils and fats, soap, metals, Houttuynia cordata, etc. The judgment of smell was performed by comparing the effects at different concentrations of the acid taste and/or acid smell-reducing agent, and a concentration giving the highest acid taste/acid smell quality was selected.
A separation-type dressing base material (100 g) was prepared by mixing 20 g of edible vinegar, 35 g of vegetable oils and fats, and 45 g of an aqueous solution containing spices and extracts with stirring. To the resulting mixture was added (Z,Z)-4,7-tridecadienal as the acid taste and/or acid smell-reducing agent of the present invention in concentrations shown in the following Table 10 to give dressings containing the agent, followed by sensory evaluation as in Example 1.

[2] = Sensory evaluation of mayonnaise containing the agent; conditions: ten panels
Protocol: as §1
A mayonnaise base material (100 g) was prepared by mixing 12 g of edible vinegar, 75 g of vegetable oils and fats, and 13 g of an aqueous solution containing egg yolk and spices. To the resulting mixture was added (Z,Z)-4,7-tridecadienal as the acid taste and/or acid smell-reducing agent of the present invention in concentrations shown in the following Table 11 to give mayonnaise containing the agent, followed by sensory evaluation as in Example 1.

CCCCC/C=C\C/C=C\CCC=O [(Z,Z)-4,7-tridecadienal]
A: number of panels, acid taste/acid smell extreme and cause irritation ([1]; 0.005 ppt): 10
B: number of panels, acid taste/acid smell slightly strong and slightly cause irritation ([1]; 0.005 ppt): 0
C: number of panels, acid taste/acid smell slightly unpleasant ([1]; 0.005 ppt): 0
Flavor judgment: number of panels who judged acid taste/acid smell quality the highest ([1]; 0.005 ppt): 0
N: number of panels, irritation of acid reduced to give a mild acid taste ([1]; 0.005 ppt): 0
X: number of panels, acid taste reduced but piercing odor characteristic to aldehydes unpleasant ([1]; 0.005 ppt): 0
A: number of panels, acid taste/acid smell extreme and cause irritation ([1]; 0.02 ppt): 9
B: number of panels, acid taste/acid smell slightly strong and slightly cause irritation ([1]; 0.02 ppt): 1
C: number of panels, acid taste/acid smell slightly unpleasant ([1]; 0.02 ppt): 0
Flavor judgment: number of panels who judged acid taste/acid smell quality the highest ([1]; 0.02 ppt): 0
N: number of panels, irritation of acid reduced to give a mild acid taste ([1]; 0.02 ppt): 0
X: number of panels, acid taste reduced but piercing odor characteristic to aldehydes unpleasant ([1]; 0.02 ppt): 0
A: number of panels, acid taste/acid smell extreme and cause irritation ([1]; 0.1 ppt): 6
B: number of panels, acid taste/acid smell slightly strong and slightly cause irritation ([1]; 0.1 ppt): 4
C: number of panels, acid taste/acid smell slightly unpleasant ([1]; 0.1 ppt): 0
Flavor judgment: number of panels who judged acid taste/acid smell quality the highest ([1]; 0.1 ppt): 0
N: number of panels, irritation of acid reduced to give a mild acid taste ([1]; 0.1 ppt): 0
X: number of panels, acid taste reduced but piercing odor characteristic to aldehydes unpleasant ([1]; 0.1 ppt): 0
A: number of panels, acid taste/acid smell extreme and cause irritation ([1]; 0.2 ppt): 4
B: number of panels, acid taste/acid smell slightly strong and slightly cause irritation ([1]; 0.2 ppt): 4
C: number of panels, acid taste/acid smell slightly unpleasant ([1]; 0.2 ppt): 2
Flavor judgment: number of panels who judged acid taste/acid smell quality the highest ([1]; 0.2 ppt): 0
N: number of panels, irritation of acid reduced to give a mild acid taste ([1]; 0.2 ppt): 0
X: number of panels, acid taste reduced but piercing odor characteristic to aldehydes unpleasant ([1]; 0.2 ppt): 0
A: number of panels, acid taste/acid smell extreme and cause irritation ([1]; 0.5 ppt): 1
B: number of panels, acid taste/acid smell slightly strong and slightly cause irritation ([1]; 0.5 ppt): 2
C: number of panels, acid taste/acid smell slightly unpleasant ([1]; 0.5 ppt): 2
Flavor judgment: number of panels who judged acid taste/acid smell quality the highest ([1]; 0.5 ppt): 1
N: number of panels, irritation of acid reduced to give a mild acid taste ([1]; 0.5 ppt): 5
X: number of panels, acid taste reduced but piercing odor characteristic to aldehydes unpleasant ([1]; 0.5 ppt): 0
A: number of panels, acid taste/acid smell extreme and cause irritation ([1]; 1 ppb): 0
B: number of panels, acid taste/acid smell slightly strong and slightly cause irritation ([1]; 1 ppb): 0
C: number of panels, acid taste/acid smell slightly unpleasant ([1]; 1 ppb): 3
Flavor judgment: number of panels who judged acid taste/acid smell quality the highest ([1]; 1 ppb): 0
N: number of panels, irritation of acid reduced to give a mild acid taste ([1]; 1 ppb): 3
X: number of panels, acid taste reduced but piercing odor characteristic to aldehydes unpleasant ([1]; 1 ppb): 4
A: number of panels, acid taste/acid smell extreme and cause irritation ([1]; 1 ppt): 0
B: number of panels, acid taste/acid smell slightly strong and slightly cause irritation ([1]; 1 ppt): 1
C: number of panels, acid taste/acid smell slightly unpleasant ([1]; 1 ppt): 3
Flavor judgment: number of panels who judged acid taste/acid smell quality the highest ([1]; 1 ppt): 1
N: number of panels, irritation of acid reduced to give a mild acid taste ([1]; 1 ppt): 6
X: number of panels, acid taste reduced but piercing odor characteristic to aldehydes unpleasant ([1]; 1 ppt): 0
A: number of panels, acid taste/acid smell extreme and cause irritation ([1]; 5 ppt): 0
B: number of panels, acid taste/acid smell slightly strong and slightly cause irritation ([1]; 5 ppt): 0
C: number of panels, acid taste/acid smell slightly unpleasant ([1]; 5 ppt): 3
Flavor judgment: number of panels who judged acid taste/acid smell quality the highest ([1]; 5 ppt): 4
N: number of panels, irritation of acid reduced to give a mild acid taste ([1]; 5 ppt): 7
X: number of panels, acid taste reduced but piercing odor characteristic to aldehydes unpleasant ([1]; 5 ppt): 0
A: number of panels, acid taste/acid smell extreme and cause irritation ([1]; 10 ppb): 0
B: number of panels, acid taste/acid smell slightly strong and slightly cause irritation ([1]; 10 ppb): 0
C: number of panels, acid taste/acid smell slightly unpleasant ([1]; 10 ppb): 1
Flavor judgment: number of panels who judged acid taste/acid smell quality the highest ([1]; 10 ppb): 0
N: number of panels, irritation of acid reduced to give a mild acid taste ([1]; 10 ppb): 2
X: number of panels, acid taste reduced but piercing odor characteristic to aldehydes unpleasant ([1]; 10 ppb): 7
A: number of panels, acid taste/acid smell extreme and cause irritation ([1]; 20 ppt): 0
B: number of panels, acid taste/acid smell slightly strong and slightly cause irritation ([1]; 20 ppt): 0
C: number of panels, acid taste/acid smell slightly unpleasant ([1]; 20 ppt): 3
Flavor judgment: number of panels who judged acid taste/acid smell quality the highest ([1]; 20 ppt): 4
N: number of panels, irritation of acid reduced to give a mild acid taste ([1]; 20 ppt): 7
X: number of panels, acid taste reduced but piercing odor characteristic to aldehydes unpleasant ([1]; 20 ppt): 0
A: number of panels, acid taste/acid smell extreme and cause irritation ([1]; 50 ppb): 0
B: number of panels, acid taste/acid smell slightly strong and slightly cause irritation ([1]; 50 ppb): 0
C: number of panels, acid taste/acid smell slightly unpleasant ([1]; 50 ppb): 0
Flavor judgment: number of panels who judged acid taste/acid smell quality the highest ([1]; 50 ppb): 0
N: number of panels, irritation of acid reduced to give a mild acid taste ([1]; 50 ppb): 2
X: number of panels, acid taste reduced but piercing odor characteristic to aldehydes unpleasant ([1]; 50 ppb): 8
A: number of panels, acid taste/acid smell extreme and cause irritation ([1]; 100 ppt): 0
B: number of panels, acid taste/acid smell slightly strong and slightly cause irritation ([1]; 100 ppt): 1
C: number of panels, acid taste/acid smell slightly unpleasant ([1]; 100 ppt): 3
Flavor judgment: number of panels who judged acid taste/acid smell quality the highest ([1]; 100 ppt): 0
N: number of panels, irritation of acid reduced to give a mild acid taste ([1]; 100 ppt): 4
X: number of panels, acid taste reduced but piercing odor characteristic to aldehydes unpleasant ([1]; 100 ppt): 2
A: number of panels, acid taste/acid smell extreme and cause irritation ([1]; 500 ppt): 0
B: number of panels, acid taste/acid smell slightly strong and slightly cause irritation ([1]; 500 ppt): 0
C: number of panels, acid taste/acid smell slightly unpleasant ([1]; 500 ppt): 4
Flavor judgment: number of panels who judged acid taste/acid smell quality the highest ([1]; 500 ppt): 0
N: number of panels, irritation of acid reduced to give a mild acid taste ([1]; 500 ppt): 4
X: number of panels, acid taste reduced but piercing odor characteristic to aldehydes unpleasant ([1]; 500 ppt): 2
A: number of panels, acid taste/acid smell extreme and cause irritation ([2]; 0.005 ppt): 10
B: number of panels, acid taste/acid smell slightly strong and slightly cause irritation ([2]; 0.005 ppt): 0
C: number of panels, acid taste/acid smell slightly unpleasant ([2]; 0.005 ppt): 0
Flavor judgment: number of panels who judged acid taste/acid smell quality the highest ([2]; 0.005 ppt): 0
N: number of panels, irritation of acid reduced to give a mild acid taste ([2]; 0.005 ppt): 0
X: number of panels, acid taste reduced but piercing odor characteristic to aldehydes unpleasant ([2]; 0.005 ppt): 0
A: number of panels, acid taste/acid smell extreme and cause irritation ([2]; 0.02 ppt): 8
B: number of panels, acid taste/acid smell slightly strong and slightly cause irritation ([2]; 0.02 ppt): 2
C: number of panels, acid taste/acid smell slightly unpleasant ([2]; 0.02 ppt): 0
Flavor judgment: number of panels who judged acid taste/acid smell quality the highest ([2]; 0.02 ppt): 0
N: number of panels, irritation of acid reduced to give a mild acid taste ([2]; 0.02 ppt): 0
X: number of panels, acid taste reduced but piercing odor characteristic to aldehydes unpleasant ([2]; 0.02 ppt): 0
A: number of panels, acid taste/acid smell extreme and cause irritation ([2]; 0.1 ppt): 7
B: number of panels, acid taste/acid smell slightly strong and slightly cause irritation ([2]; 0.1 ppt): 2
C: number of panels, acid taste/acid smell slightly unpleasant ([2]; 0.1 ppt): 1
Flavor judgment: number of panels who judged acid taste/acid smell quality the highest ([2]; 0.1 ppt): 0
N: number of panels, irritation of acid reduced to give a mild acid taste ([2]; 0.1 ppt): 0
X: number of panels, acid taste reduced but piercing odor characteristic to aldehydes unpleasant ([2]; 0.1 ppt): 0
A: number of panels, acid taste/acid smell extreme and cause irritation ([2]; 0.2 ppt): 3
B: number of panels, acid taste/acid smell slightly strong and slightly cause irritation ([2]; 0.2 ppt): 4
C: number of panels, acid taste/acid smell slightly unpleasant ([2]; 0.2 ppt): 3
Flavor judgment: number of panels who judged acid taste/acid smell quality the highest ([2]; 0.2 ppt): 0
N: number of panels, irritation of acid reduced to give a mild acid taste ([2]; 0.2 ppt): 0
X: number of panels, acid taste reduced but piercing odor characteristic to aldehydes unpleasant ([2]; 0.2 ppt): 0
A: number of panels, acid taste/acid smell extreme and cause irritation ([2]; 0.5 ppt): 0
B: number of panels, acid taste/acid smell slightly strong and slightly cause irritation ([2]; 0.5 ppt): 2
C: number of panels, acid taste/acid smell slightly unpleasant ([2]; 0.5 ppt): 3
Flavor judgment: number of panels who judged acid taste/acid smell quality the highest ([2]; 0.5 ppt): 1
N: number of panels, irritation of acid reduced to give a mild acid taste ([2]; 0.5 ppt): 5
X: number of panels, acid taste reduced but piercing odor characteristic to aldehydes unpleasant ([2]; 0.5 ppt): 0
A: number of panels, acid taste/acid smell extreme and cause irritation ([2]; 1 ppb): 0
B: number of panels, acid taste/acid smell slightly strong and slightly cause irritation ([2]; 1 ppb): 0
C: number of panels, acid taste/acid smell slightly unpleasant ([2]; 1 ppb): 2
Flavor judgment: number of panels who judged acid taste/acid smell quality the highest ([2]; 1 ppb): 0
N: number of panels, irritation of acid reduced to give a mild acid taste ([2]; 1 ppb): 4
X: number of panels, acid taste reduced but piercing odor characteristic to aldehydes unpleasant ([2]; 1 ppb): 4
A: number of panels, acid taste/acid smell extreme and cause irritation ([2]; 1 ppt): 0
B: number of panels, acid taste/acid smell slightly strong and slightly cause irritation ([2]; 1 ppt): 2
C: number of panels, acid taste/acid smell slightly unpleasant ([2]; 1 ppt): 2
Flavor judgment: number of panels who judged acid taste/acid smell quality the highest ([2]; 1 ppt): 1
N: number of panels, irritation of acid reduced to give a mild acid taste ([2]; 1 ppt): 6
X: number of panels, acid taste reduced but piercing odor characteristic to aldehydes unpleasant ([2]; 1 ppt): 0
A: number of panels, acid taste/acid smell extreme and cause irritation ([2]; 5 ppt): 0
B: number of panels, acid taste/acid smell slightly strong and slightly cause irritation ([2]; 5 ppt): 0
C: number of panels, acid taste/acid smell slightly unpleasant ([2]; 5 ppt): 2
Flavor judgment: number of panels who judged acid taste/acid smell quality the highest ([2]; 5 ppt): 4
N: number of panels, irritation of acid reduced to give a mild acid taste ([2]; 5 ppt): 8
X: number of panels, acid taste reduced but piercing odor characteristic to aldehydes unpleasant ([2]; 5 ppt): 0
A: number of panels, acid taste/acid smell extreme and cause irritation ([2]; 10 ppb): 0
B: number of panels, acid taste/acid smell slightly strong and slightly cause irritation ([2]; 10 ppb): 0
C: number of panels, acid taste/acid smell slightly unpleasant ([2]; 10 ppb): 1
Flavor judgment: number of panels who judged acid taste/acid smell quality the highest ([2]; 10 ppb): 0
N: number of panels, irritation of acid reduced to give a mild acid taste ([2]; 10 ppb): 2
X: number of panels, acid taste reduced but piercing odor characteristic to aldehydes unpleasant ([2]; 10 ppb): 7
A: number of panels, acid taste/acid smell extreme and cause irritation ([2]; 20 ppt): 0
B: number of panels, acid taste/acid smell slightly strong and slightly cause irritation ([2]; 20 ppt): 0
C: number of panels, acid taste/acid smell slightly unpleasant ([2]; 20 ppt): 3
Flavor judgment: number of panels who judged acid taste/acid smell quality the highest ([2]; 20 ppt): 4
N: number of panels, irritation of acid reduced to give a mild acid taste ([2]; 20 ppt): 7
X: number of panels, acid taste reduced but piercing odor characteristic to aldehydes unpleasant ([2]; 20 ppt): 0
A: number of panels, acid taste/acid smell extreme and cause irritation ([2]; 50 ppb): 0
B: number of panels, acid taste/acid smell slightly strong and slightly cause irritation ([2]; 50 ppb): 0
C: number of panels, acid taste/acid smell slightly unpleasant ([2]; 50 ppb): 1
Flavor judgment: number of panels who judged acid taste/acid smell quality the highest ([2]; 50 ppb): 0
N: number of panels, irritation of acid reduced to give a mild acid taste ([2]; 50 ppb): 1
X: number of panels, acid taste reduced but piercing odor characteristic to aldehydes unpleasant ([2]; 50 ppb): 8
A: number of panels, acid taste/acid smell extreme and cause irritation ([2]; 100 ppt): 0
B: number of panels, acid taste/acid smell slightly strong and slightly cause irritation ([2]; 100 ppt): 1
C: number of panels, acid taste/acid smell slightly unpleasant ([2]; 100 ppt): 4
Flavor judgment: number of panels who judged acid taste/acid smell quality the highest ([2]; 100 ppt): 0
N: number of panels, irritation of acid reduced to give a mild acid taste ([2]; 100 ppt): 4
X: number of panels, acid taste reduced but piercing odor characteristic to aldehydes unpleasant ([2]; 100 ppt): 1
A: number of panels, acid taste/acid smell extreme and cause irritation ([2]; 500 ppt): 0
B: number of panels, acid taste/acid smell slightly strong and slightly cause irritation ([2]; 500 ppt): 0
C: number of panels, acid taste/acid smell slightly unpleasant ([2]; 500 ppt): 4
Flavor judgment: number of panels who judged acid taste/acid smell quality the highest ([2]; 500 ppt): 0
N: number of panels, irritation of acid reduced to give a mild acid taste ([2]; 500 ppt): 4
X: number of panels, acid taste reduced but piercing odor characteristic to aldehydes unpleasant ([2]; 500 ppt): 2
